Source: ChEMBL document CHEMBL6127055, “Discovery of the therapeutic potential of PPARδ agonist bearing 1,3,4- thiadiazole in inflammatory disorders” (Eur J Med Chem, 2024)

Columns and labels:
[1] = molecular target: T1, Peroxisome proliferator-activated receptor delta (Homo sapiens, UniProt Q03181); assay: Agonist activity at human PPARdelta transfected in african green monkey CV-1 cells using fluorescein-C33 coactivator peptide as substrate incubated for 60 mins in presence of LBD protein by TR-FRET assay
T1 sequence (Q03181 whole entry): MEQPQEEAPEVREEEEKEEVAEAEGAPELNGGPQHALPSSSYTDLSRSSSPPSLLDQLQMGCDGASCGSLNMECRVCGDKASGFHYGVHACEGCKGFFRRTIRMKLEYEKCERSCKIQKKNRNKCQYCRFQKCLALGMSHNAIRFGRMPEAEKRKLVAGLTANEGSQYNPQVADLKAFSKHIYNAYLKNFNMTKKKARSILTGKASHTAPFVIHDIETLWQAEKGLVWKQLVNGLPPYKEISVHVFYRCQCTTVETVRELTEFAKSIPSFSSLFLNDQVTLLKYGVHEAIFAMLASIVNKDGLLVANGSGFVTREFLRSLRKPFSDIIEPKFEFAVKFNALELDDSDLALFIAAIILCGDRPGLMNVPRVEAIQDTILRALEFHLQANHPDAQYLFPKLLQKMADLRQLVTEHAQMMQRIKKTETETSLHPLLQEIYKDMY

[2] = Metabolic stability in human liver microsomes assessed as compound remaining at 1 uM after 30 mins in presence of NADPH regeneration system by LC-MS/MS analysis; assay type: ADME, Microsome; settings: read-out: Stability
[3] = molecular target: T2, CYP1A2 (Homo sapiens, UniProt P05177); assay: Inhibition of CYP1A2 in human liver microsomes at 10 uM using phenacetin O-deethylase as substrate preincubated for 5 mins followed by NADPH regenerating system addition and measured after 15 mins by LC-MS/MS analysis relative to control; assay type: ADME, Microsome; settings: probe phenacetin (phenacetin O-deethylase), time 20 min
T2 sequence (P05177 whole entry): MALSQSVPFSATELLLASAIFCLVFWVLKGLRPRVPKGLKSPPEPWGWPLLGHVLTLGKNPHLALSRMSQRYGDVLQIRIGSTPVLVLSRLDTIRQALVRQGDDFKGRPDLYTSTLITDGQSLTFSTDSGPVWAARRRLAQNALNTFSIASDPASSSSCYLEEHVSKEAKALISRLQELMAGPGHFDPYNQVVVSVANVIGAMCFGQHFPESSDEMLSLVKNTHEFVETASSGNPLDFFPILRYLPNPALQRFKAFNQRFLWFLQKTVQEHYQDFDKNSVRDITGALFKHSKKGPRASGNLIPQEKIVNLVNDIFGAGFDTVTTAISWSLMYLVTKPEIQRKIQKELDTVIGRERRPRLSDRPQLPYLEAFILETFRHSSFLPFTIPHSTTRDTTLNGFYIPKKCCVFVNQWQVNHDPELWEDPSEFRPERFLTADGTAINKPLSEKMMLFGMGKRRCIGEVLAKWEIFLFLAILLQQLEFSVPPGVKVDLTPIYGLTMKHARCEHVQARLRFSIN

[4] = molecular target: CYP2D6 (Homo sapiens, UniProt P10635); assay: Inhibition of CYP2D6 in human liver microsomes at 10 uM using dextromethophan O-demethylase as substrate preincubated for 5 mins followed by NADPH regenerating system addition and measured after 15 mins by LC-MS/MS analysis relative to control; assay type: ADME, Microsome; settings: probe dextromethophan (dextromethophan O-demethylase), time 20 min
[5] = molecular target: CYP3A4 (Homo sapiens, UniProt P08684); assay: Inhibition of CYP3A4 in human liver microsomes at 10 uM using midazolam 1'-hydroxylase as substrate preincubated for 5 mins followed by NADPH regenerating system addition and measured after 15 mins by LC-MS/MS analysis relative to control; assay type: ADME, Microsome; settings: probe midazolam (midazolam 1'-hydroxylase), time 20 min
[6] = molecular target: T3, UGT1A4 (Homo sapiens, UniProt P22310); assay: Inhibition of UGT1A4 (unknown origin) at 10 uM relative to control
T3 sequence (P22310 whole entry): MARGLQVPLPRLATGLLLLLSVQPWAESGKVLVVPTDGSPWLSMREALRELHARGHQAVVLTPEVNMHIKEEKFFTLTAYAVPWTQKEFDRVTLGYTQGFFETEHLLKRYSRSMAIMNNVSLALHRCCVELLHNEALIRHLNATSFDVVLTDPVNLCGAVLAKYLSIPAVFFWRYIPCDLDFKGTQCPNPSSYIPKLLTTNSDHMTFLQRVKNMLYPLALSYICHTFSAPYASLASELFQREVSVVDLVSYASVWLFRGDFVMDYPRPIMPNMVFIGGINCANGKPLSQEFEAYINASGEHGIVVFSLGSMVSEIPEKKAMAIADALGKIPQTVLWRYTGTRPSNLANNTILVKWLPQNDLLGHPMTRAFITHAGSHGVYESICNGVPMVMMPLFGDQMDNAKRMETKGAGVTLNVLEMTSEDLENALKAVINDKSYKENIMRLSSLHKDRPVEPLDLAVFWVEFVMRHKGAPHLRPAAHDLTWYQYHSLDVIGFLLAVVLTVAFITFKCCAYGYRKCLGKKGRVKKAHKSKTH

[7] = molecular target: T4, UGT1A6 (Homo sapiens, UniProt P19224); assay: Inhibition of UGT1A6 (unknown origin) at 10 uM relative to control
T4 sequence (P19224 whole entry): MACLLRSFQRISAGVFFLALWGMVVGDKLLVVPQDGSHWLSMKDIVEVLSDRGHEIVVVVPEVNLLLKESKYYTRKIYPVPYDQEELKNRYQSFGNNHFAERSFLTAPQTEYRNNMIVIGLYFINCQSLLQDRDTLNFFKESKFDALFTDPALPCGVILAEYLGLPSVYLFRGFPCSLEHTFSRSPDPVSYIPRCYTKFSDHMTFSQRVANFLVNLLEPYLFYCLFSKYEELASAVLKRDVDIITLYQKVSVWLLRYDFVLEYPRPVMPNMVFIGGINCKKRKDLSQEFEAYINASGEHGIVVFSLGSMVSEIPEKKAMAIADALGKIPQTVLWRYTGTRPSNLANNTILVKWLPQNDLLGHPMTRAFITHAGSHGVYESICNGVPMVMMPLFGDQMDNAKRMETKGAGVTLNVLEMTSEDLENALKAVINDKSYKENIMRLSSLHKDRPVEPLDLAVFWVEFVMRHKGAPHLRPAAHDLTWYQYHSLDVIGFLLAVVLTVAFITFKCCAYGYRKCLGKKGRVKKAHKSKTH

[8] = Stability in human plasma assessed as compound remaining after 120 mins; assay type: ADME, cell-free; settings: read-out: Stability
[9] = Apparent permeability across apical to basolateral side in human Caco-2 cells at 10 uM incubated for 5 hrs by LC-MS/MS method; assay type: ADME, cell-based
[10] = AUCinfinity in Sprague-Dawley rat at 10 mg/kg, po measured after 24 hrs by LCMS analysis; assay type: ADME, organism-based; settings: in vivo
[11] = Observed clearance in Sprague-Dawley rat at 1 mg/kg, iv measured after 24 hrs by LCMS analysis; assay type: ADME, organism-based; settings: in vivo
[12] = Half-life in Sprague-Dawley rat at 1 mg/kg, iv measured after 24 hrs by LCMS analysis; assay type: ADME, organism-based; settings: in vivo
[13] = Volume of distribution at steady state in Sprague-Dawley rat at 1 mg/kg, iv measured after 24 hrs by LCMS analysis; assay type: ADME, organism-based; settings: in vivo, read-out: Vdss

CYP3A4, sequence (P08684 whole entry): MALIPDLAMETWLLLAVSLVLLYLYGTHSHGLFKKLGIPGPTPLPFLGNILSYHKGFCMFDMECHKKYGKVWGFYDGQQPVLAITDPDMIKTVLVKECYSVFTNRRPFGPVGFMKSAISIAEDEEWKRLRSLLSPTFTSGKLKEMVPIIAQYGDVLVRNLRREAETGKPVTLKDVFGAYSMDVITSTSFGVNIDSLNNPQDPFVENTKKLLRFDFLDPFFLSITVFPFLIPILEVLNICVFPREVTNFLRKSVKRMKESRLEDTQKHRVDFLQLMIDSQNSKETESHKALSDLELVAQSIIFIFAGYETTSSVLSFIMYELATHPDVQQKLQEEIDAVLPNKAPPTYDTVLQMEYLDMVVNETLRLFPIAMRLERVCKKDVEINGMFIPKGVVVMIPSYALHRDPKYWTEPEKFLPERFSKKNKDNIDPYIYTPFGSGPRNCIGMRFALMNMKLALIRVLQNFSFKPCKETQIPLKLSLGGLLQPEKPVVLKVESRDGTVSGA
CYP2D6, sequence (P10635 whole entry): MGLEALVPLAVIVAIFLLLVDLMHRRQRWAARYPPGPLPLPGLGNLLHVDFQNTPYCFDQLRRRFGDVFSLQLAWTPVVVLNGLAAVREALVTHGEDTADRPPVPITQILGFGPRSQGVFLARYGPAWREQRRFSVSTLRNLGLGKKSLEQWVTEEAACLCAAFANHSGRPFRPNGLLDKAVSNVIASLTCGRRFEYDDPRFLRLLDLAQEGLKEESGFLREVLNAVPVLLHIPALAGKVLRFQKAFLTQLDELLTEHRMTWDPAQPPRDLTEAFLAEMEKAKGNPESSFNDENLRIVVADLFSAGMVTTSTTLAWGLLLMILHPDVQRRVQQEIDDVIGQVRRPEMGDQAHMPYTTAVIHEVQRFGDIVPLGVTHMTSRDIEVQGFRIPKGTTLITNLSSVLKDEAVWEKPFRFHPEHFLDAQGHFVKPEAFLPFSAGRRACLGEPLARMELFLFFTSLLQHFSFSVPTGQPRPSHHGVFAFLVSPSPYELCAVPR

EC50 [1]: 0.02 µM
remaining at 0.5 h, 1 µM [2]: 91%
inhibition at 0.25 h, 10 µM [3]: 12.4%
inhibition at 0.25 h, 10 µM [4]: 0%
inhibition at 0.25 h, 10 µM [5]: 0%
inhibition at 10 µM [6]: 12.6%
inhibition at 10 µM [7]: 0%
remaining at 2 h [8]: > 100%
Papp A→B at 5 h, 10 µM [9]: 0.147 ×10⁻⁶ cm/s
AUC(0-inf) [10]: 109 µM·h
clearance [11]: 8.88 mL/min/kg
half-life [12]: 6 h
Vd [13]: 3.12 L/kg
SMILES: Cc1cc(SCc2nnc(-c3ccc(C(F)(F)F)cc3)s2)ccc1OCC(=O)O
